Series [1] has as its system SiHa cells (cervical cancer). The experiment in a line: MTT antiproliferative assay, SiHa. The class given is cell-based, human. Particulars: 72 h; for inhibition at 10 µM / inhibition at 30 µM: read-out: Growth inhibition (%) ± SEM. As for the experimental part:
(§1) The in vitro antiproliferative activities of the synthesized aminodiols 4–38 against a panel of different human cancer cell lines of gynecological origin, including cervical (SiHA and HeLa), breast (MCF7 and MDA-MB-231), and ovary (A2780) cancers were assayed by the MTT method. […] Cisplatin, a clinically applied anticancer agent, was used as a reference compound and the results are summarized in Figure 3 and Table S1 in Supporting Information. […] On the other hand, none of the prepared azole derivatives exerted relevant activity.
(§2) The growth-inhibitory effects of the gibberellic acid-based aminodiol derivatives were determined by a standard MTT (3-(4,5-dimethylthiazol-2-yl)-2,5-diphenyltetrazolium bromide) assay on a panel containing five cell lines, including Hela and Siha (cervical cancers); MDA-MB-231 and MCF-7 (breast cancers); and A2780 ovarian cancer cells. The most promising agents were additionally tested against NIH/3T3 mouse embryo fibroblast cells. All cell lines were purchased from the European Collection of Cell Cultures (Salisbury, UK) except SiHa, which was obtained from the American Tissue Culture Collection (Manassas, VA, USA). The cells were maintained in minimal essential medium supplemented with 10% fetal bovine serum, 1% non-essential amino acids, and 1% penicillin-streptomycin at 37 °C in a humidified atmosphere containing 5% CO2. All media and supplements were obtained from Lonza Group Ltd., (Basel, Switzerland). Cancer cells were seeded into 96-well plates (5000 cells/well), after an overnight incubation the test compound was added in 2 different concentrations (10 µM and 30 µM) and incubated for another 72 h under cell-culturing conditions. Then, 20 μL of 5 mg/mL MTT solution was added to each well and incubated for a further 4 h. The medium was removed, and the precipitated formazan crystals were dissolved in DMSO during 60 min of shaking at 37 °C. As the final step, the absorbance was measured at 545 nm by using a microplate reader (SPECTROStar Nano, BMG Labtech, Offenburg, Germany). Untreated cells were included as controls. […] These agents were additionally tested against NIH/3T3 fibroblasts to obtain results about their cancer selectivity. Two independent experiments were performed with five wells for each condition. Cisplatin (Ebewe GmbH, Unterach, Austria), a clinically used anticancer agent, was used as a positive control. Calculations were performed utilizing the GraphPad Prism 5.01 software (GraphPad Software Inc., San Diego, CA, USA).

The subject of series [2] is HeLa cells (cervical cancer). The experiment in a line: MTT antiproliferative assay, HeLa. The following applies: 72 h; for inhibition at 10 µM / inhibition at 30 µM: read-out: Growth inhibition (%) ± SEM. The class given is cell-based, human. The procedure:
as §1, §2

Series [3] is described as follows: DPPH free radical scavenging assay. Particulars: for DPPH scavenging activity: concentration range 3–100 µM.
Experimental: As a consequence, in vitro antioxidant activities of selected N-aliphatic- and N-aryl-substituted aminodiols were determined by 1,1-diphenyl-2-picrylhydrazyl (DPPH) assay.
The antioxidant effects of the aminodiol derivatives were tested on 1,1-diphenyl-2-picrylhydrazyl (DPPH) radicals according to Brand-Williams (1995) [55] and Sánchez-Moreno (2002) [56], with some modifications. […] After a 30 min incubation period at room temperature (25 °C) the absorbances were measured at 517 nm by a microplate reader (SPECTROStar Nano, BMG Labtech, Offenburg, Germany). Trolox (3,4-Dihydro-6-hydroxy-2,5,7,8-tetramethyl-2H-1-benzopyran-2-carboxylic acid) was used as a positive control. All measurements were performed in duplicate with 5 parallels.
In series [4] the test system is A2780 ovarian cancer cells. Nature of the series: MTT antiproliferative assay, A2780. It counts as cell-based, human. Particulars: for inhibition at 10 µM / inhibition at 30 µM / Growth inhibition (%) ± SEM: 72 h; for inhibition at 10 µM / inhibition at 30 µM: read-out: Growth inhibition (%) ± SEM; for IC50: A2780, 72 h. As for the experimental part: as §1, §2
For series [5], the system named is MDA-MB-231 cells (breast cancer). Nature of the series: MTT antiproliferative assay, MDA-MB-231. It counts as cell-based, human. The following applies: for inhibition at 10 µM / inhibition at 30 µM / Growth inhibition (%) ± SEM: 72 h; for inhibition at 10 µM / inhibition at 30 µM: read-out: Growth inhibition (%) ± SEM; for IC50: MDA-MB-231, 72 h. The procedure:
as §1, §2

For series [6], the system named is NIH/3T3 mouse embryo fibroblast cells. The experiment in a line: MTT assay on non-cancerous fibroblasts (cancer selectivity). It counts as cell-based. Particulars: for IC50: NIH/3T3, 72 h. As for the experimental part:
as §1, §2

Setting [7] is: Homo sapiens, MDA-MB-231, 10 μM.
Where [8] appears, read: Homo sapiens, MDA-MB-231, 30 μM.

Turning to `CCOC(=O)[C@H]1c2c(C)cccc2[C@H]2CC[C@]3(O)C[C@@]21C[C@]3(O)Cn1nnc2ccccc21` [Compound 30, Ethyl (4bS,7S,8S,9aR,10R)-8-((1H-benzo[d][1,2,3]triazol-1-yl)methyl)-7,8-dihydroxy-1-methyl-4b,6,7,8,9,10-hexahydro-5H-7,9a-methanobenzo[a]azulene-10-carboxylate], the inhibition at 10 µM in series [1] (Homo sapiens, 10 μM) is under 20%; in series [2] (Homo sapiens, 10 μM) it was under 20%; in series [4] (Homo sapiens, A2780, 10 μM) it was under 20%; in series [5] (setting [7]), under 20%. The inhibition at 30 µM was 29.5 ± 2% in series [1] (Homo sapiens, 30 μM); under 20% in series [2] (Homo sapiens, 30 μM); 26.8 ± 3.79% in series [4] (Homo sapiens, A2780, 30 μM); under 20% in series [5] (setting [8]). Moreover, the “DPPH scavenging activity” value in series [3] is “None of the six molecules elicited considerable activity”.
Consider `CCOC(=O)[C@H]1c2c(C)cccc2C2CC[C@]3(O)C[C@@]21C[C@]3(O)CN[C@H](C)c1cccc2ccccc12` (stereo partly drawn) [Compound 14, Ethyl (7S,8S,9aR,10R)-7,8-dihydroxy-1-methyl-8-((((R)-1-(naphthalen-1-yl)ethyl)amino)methyl)-4b,6,7,8,9,10-hexahydro-5H-7,9a-methanobenzo[a]azulene-10-carboxylate], for which the inhibition at 10 µM in series [1] (Homo sapiens, 10 μM) was determined as 96.3 ± 2.13%; in series [2] (Homo sapiens, 10 μM) it was 98.08 ± 0.19%; in series [4] (Homo sapiens, A2780, 10 μM) it was 96.53 ± 0.73%; in series [6] (Mus musculus, NIH3T3, NIH/3T3, 10 μM, 72 h, read-out: Growth inhibition (%) ± SEM) it was 88.6 ± 0.97%; in series [5] (setting [7]), 96.57 ± 0.37%. For the same molecule, the inhibition at 30 µM in series [1] (Homo sapiens, 30 μM) was determined as 97.84 ± 0.42%; in series [2] (Homo sapiens, 30 μM), 97.4 ± 0.34%; in series [4] (Homo sapiens, A2780, 30 μM), 95.9 ± 1.06%; in series [6] (Mus musculus, NIH3T3, NIH/3T3, 30 μM, 72 h, read-out: Growth inhibition (%) ± SEM), 88.7 ± 0.98%; in series [5] (setting [8]) it was 96.77 ± 0.16%. The IC50 in series [1] (Homo sapiens) came out at 5.25 ± 0.86 µM; in series [2] (Homo sapiens), 4.66 ± 0.21 µM; in series [4] (Homo sapiens) it was 5.15 ± 0.28 µM; in series [6] (Mus musculus, NIH3T3), 5.02 ± 0.26 µM; in series [5] (Homo sapiens), 8.04 ± 0.61 µM. Besides, in series [3], the “DPPH scavenging activity” value is listed as “None of the six molecules elicited considerable activity”. The “cancer selectivity (cancer cells vs NIH/3T3 fibroblasts), words” value in series [6] (comparison of IC50 on fibroblasts and malignant cell lines) is “inhibited the growth of cancer cells and fibroblasts in the same concentration range”.
`CCOC(=O)[C@H]1c2c(C)cccc2[C@H]2CC[C@]3(O)C[C@@]21C[C@]3(O)CN(C)Cc1ccccc1` [Compound 16, Ethyl (4bS,7S,8S,9aR,10R)-8-((benzyl(methyl)amino)methyl)-7,8-dihydroxy-1-methyl-4b,6,7,8,9,10-hexahydro-5H-7,9a-methanobenzo[a]azulene-10-carboxylate] displayed a melting point of 94 to 95 °C. In addition, the inhibition at 10 µM in series [1] (Homo sapiens, 10 μM) is under 20%. Further, the inhibition at 30 µM in series [1] (Homo sapiens, 30 μM) came out at 23 ± 0.39%. The inhibition at 10 µM in series [2] (Homo sapiens, 10 μM) is under 20%. The inhibition at 30 µM in series [2] (Homo sapiens, 30 μM) turned out to be 36 ± 2.89%. Further, in series [3], the “DPPH scavenging activity” value is given as “None of the six molecules elicited considerable activity”. The inhibition at 10 µM in series [4] (Homo sapiens, A2780, 10 μM) is under 20%. Besides, the inhibition at 30 µM in series [4] (Homo sapiens, A2780, 30 μM) came to 21.6 ± 0.85%. Also, in series [5] (setting [7]), the inhibition at 10 µM was under 20%. Besides, the inhibition at 30 µM in series [5] (setting [8]) came to 25 ± 0.99%.
For the molecule `CCOC(=O)[C@H]1c2c(C)cccc2[C@H]2CC[C@]3(O)C[C@@]21C[C@]3(O)CN` [Compound 25, Ethyl (4bS,7S,8S,9aR,10R)-8-(aminomethyl)-7,8-dihydroxy-1-methyl-4b,6,7,8,9,10-hexahydro-5H-7,9a-methanobenzo[a]azulene-10-carboxylate], the melting point is 92 to 94 °C. Moreover, in series [1] (Homo sapiens, 10 μM), the inhibition at 10 µM was under 20%. For the same molecule, the inhibition at 30 µM in series [1] (Homo sapiens, 30 μM) was under 20%. In addition, the inhibition at 10 µM in series [2] (Homo sapiens, 10 μM) was under 20%. For the same molecule, in series [2] (Homo sapiens, 30 μM), the inhibition at 30 µM was under 20%. The “DPPH scavenging activity” value in series [3] was “None of the six molecules elicited considerable activity”. Besides, the inhibition at 10 µM in series [4] (Homo sapiens, A2780, 10 μM) was under 20%. In addition, the inhibition at 30 µM in series [4] (Homo sapiens, A2780, 30 μM) is under 20%. In addition, in series [5] (setting [7]), the inhibition at 10 µM was under 20%. Moreover, the inhibition at 30 µM in series [5] (setting [8]) was under 20%.
With `Cc1c(C)c2c(c(C)c1O)CCC(C)(C(=O)O)O2` (centres unmarked) [Trolox, 3,4-Dihydro-6-hydroxy-2,5,7,8-tetramethyl-2H-1-benzopyran-2-carboxylic acid, reference compound], the IC50 in series [3] (0.1 mM DPPH, 30 min, 25 °C) was 20.2 µM.
As for `N.N.[Cl][Pt][Cl]` [Cisplatin, reference compound], the “Growth inhibition (%) ± SEM” value came out at 88.64 ± 0.50% in series [1] (10 μM); 90.18 ± 1.78% in series [1] (30 μM); 42.61 ± 2.33% in series [2] (10 μM); 99.93 ± 0.26% in series [2] (30 μM); 83.57 ± 1.21% in series [4] (A2780, 10 μM); 95.02 ± 0.28% in series [4] (A2780, 30 μM). Further, the “Growth inhibition (%) ± SEM” value in series [6] (NIH/3T3, 10 μM, 72 h) is 73.88 ± 1.63%; in series [6] (NIH/3T3, 30 μM, 72 h) it was 97.10 ± 0.15%; in series [5] (MDA-MB-231, 10 μM) it was 67.51 ± 1.01%; in series [5] (MDA-MB-231, 30 μM), 87.75 ± 1.10%. The IC50 was 7.84 µM in series [1]; 12.4 µM in series [2]; 1.3 µM in series [4]; 5.49 µM in series [6]; 3.74 µM in series [5].
As for `CCOC(=O)[C@@H]1c2c(C)cccc2C2CC[C@]3(O)C[C@@]21C[C@]3(O)CNCc1cccc2ccccc12` (stereo partly drawn) [Compound 38, Ethyl (7S,8S,9aR,10S)-7,8-dihydroxy-1-methyl-8-(((naphthalen-1-ylmethyl)amino)methyl)-4b,6,7,8,9,10-hexahydro-5H-7,9a-methanobenzo[a]azulene-10-carboxylate], the melting point fell in the range of 61 to 65 °C. The inhibition at 10 µM in series [1] (Homo sapiens, 10 μM) was 27.9 ± 0.93%. In addition, the inhibition at 30 µM in series [1] (Homo sapiens, 30 μM) came to 97.63 ± 0.8%. For the same molecule, the inhibition at 10 µM in series [2] (Homo sapiens, 10 μM) turned out to be 26.9 ± 0.53%. For the same molecule, in series [2] (Homo sapiens, 30 μM), the inhibition at 30 µM stood at 96.5 ± 1.72%. Moreover, in series [4] (Homo sapiens, A2780, 10 μM), the inhibition at 10 µM stood at 28.6 ± 2.66%. For the same molecule, the inhibition at 30 µM in series [4] (Homo sapiens, A2780, 30 μM) was 95.23 ± 0.66%. Moreover, the inhibition at 10 µM in series [5] (setting [7]) was under 20%. Also, the inhibition at 30 µM in series [5] (setting [8]) was 96.17 ± 0.76%.
`CCOC(=O)[C@H]1c2c(C)cccc2[C@H]2CC[C@]3(O)C[C@@]21C[C@]3(O)Cn1ccnc1` [Compound 26, Ethyl (4bS,7S,8S,9aR,10R)-8-((1H-imidazol-1-yl)methyl)-7,8-dihydroxy-1-methyl-4b,6,7,8,9,10-hexahydro-5H-7,9a-methanobenzo[a]azulene-10-carboxylate]: the melting point was 101 to 103 °C. Moreover, the inhibition at 10 µM in series [1] (Homo sapiens, 10 μM) was under 20%. Also, the inhibition at 30 µM in series [1] (Homo sapiens, 30 μM) worked out at 25.9 ± 2.53%. Moreover, the inhibition at 10 µM in series [2] (Homo sapiens, 10 μM) was under 20%. The inhibition at 30 µM in series [2] (Homo sapiens, 30 μM) was under 20%. Also, in series [4] (Homo sapiens, A2780, 10 μM), the inhibition at 10 µM is under 20%. The inhibition at 30 µM in series [4] (Homo sapiens, A2780, 30 μM) was under 20%. For the same molecule, the inhibition at 10 µM in series [5] (setting [7]) is under 20%. Further, the inhibition at 30 µM in series [5] (setting [8]) is under 20%.

For the origin of these results see paper PMC9499365, “Stereoselective Synthesis and Application of Gibberellic Acid-Derived Aminodiols” (International Journal of Molecular Sciences, 2022).
